Experiments:
[1] = test system: NF-κB pathway; assay: TNF-α assay in IFN-γ-differentiated, LPS-stimulated THP-1 cells (ELISA); format: cell-based; conditions: Homo sapiens, 50 ng/mL LPS, 3 hours
Summary of the method: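 THP-1 cells differentiated with 25 ng/mL IFN-γ for 24 h, then preincubated 30 min at 37 °C with compound (1:3.16 serial dilutions) in serum-free medium. Stimulated with 50 ng/mL LPS for 3 h; supernatant assayed by human TNF-α ELISA. IC50 from four-parameter logistic fit of % inhibition.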

[2] = target: NLRP3 inflammasome (Homo sapiens, UniProt Q96P20); assay: IL-1β assay in IFN-γ-differentiated, LPS-primed, ATP-activated THP-1 cells (ELISA); format: cell-based; conditions: 50 ng/mL LPS priming, 2.5 mM ATP activation, 2 hours
Sequence of NLRP3 inflammasome (Q96P20 whole entry): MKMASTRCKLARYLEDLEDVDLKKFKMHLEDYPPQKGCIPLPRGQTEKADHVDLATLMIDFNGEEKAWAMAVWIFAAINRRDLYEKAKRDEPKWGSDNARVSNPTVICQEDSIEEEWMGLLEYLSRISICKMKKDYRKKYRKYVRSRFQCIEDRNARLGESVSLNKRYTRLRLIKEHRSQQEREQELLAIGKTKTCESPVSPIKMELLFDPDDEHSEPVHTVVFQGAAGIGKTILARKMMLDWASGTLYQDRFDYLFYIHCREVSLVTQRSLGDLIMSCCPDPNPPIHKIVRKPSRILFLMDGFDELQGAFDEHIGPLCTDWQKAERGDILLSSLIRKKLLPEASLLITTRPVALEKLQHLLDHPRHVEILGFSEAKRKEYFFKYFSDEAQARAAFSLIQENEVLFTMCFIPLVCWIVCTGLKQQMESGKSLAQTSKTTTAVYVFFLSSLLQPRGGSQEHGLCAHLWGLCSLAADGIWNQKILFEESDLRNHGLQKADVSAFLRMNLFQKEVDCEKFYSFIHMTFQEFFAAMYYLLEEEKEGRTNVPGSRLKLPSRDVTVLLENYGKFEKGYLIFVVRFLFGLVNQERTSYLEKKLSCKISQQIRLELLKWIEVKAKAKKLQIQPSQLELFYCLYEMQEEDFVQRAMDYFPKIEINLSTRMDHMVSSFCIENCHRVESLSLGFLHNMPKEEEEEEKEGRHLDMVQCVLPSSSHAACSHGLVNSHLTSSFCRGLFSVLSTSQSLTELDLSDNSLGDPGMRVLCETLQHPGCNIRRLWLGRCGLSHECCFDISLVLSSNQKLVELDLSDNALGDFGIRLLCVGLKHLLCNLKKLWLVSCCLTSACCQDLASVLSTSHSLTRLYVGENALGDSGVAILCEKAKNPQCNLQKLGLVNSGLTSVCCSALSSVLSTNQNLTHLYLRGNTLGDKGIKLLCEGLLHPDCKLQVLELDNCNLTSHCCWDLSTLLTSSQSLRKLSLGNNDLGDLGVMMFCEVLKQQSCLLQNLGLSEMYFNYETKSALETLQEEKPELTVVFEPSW
Summary of the method: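 THP-1 cells differentiated with 25 ng/mL IFN-γ for 24 h, then primed with 50 ng/mL LPS for 24 h in serum-free medium. After 30 min compound preincubation (1:3.16 dilution series), inflammasome activated with 2.5 mM ATP for 2 h at 37 °C. Supernatant IL-1β measured by ELISA; IC50 from logistic fit of % inhibition.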

[3] = target: T1, MDR1 (P-gp) (Homo sapiens, UniProt P08183); assay: MDCK-MDR1 assay (apparent permeability and efflux ratio); format: in vitro ADME; conditions: dog; for efflux ratio at 60 min, 1 µM: pH 7.4, MDCK-MDR1, P-gp mediated efflux ratio, read-out: MDR1 ER; for Papp A→B at 60 min, 1 µM: MDCK-MDR1 monolayer, apical to basolateral, pH 7.4, 60 minutes
T1 construct: expressed in transfected cells; host or cells: Madin-Darby Canine Kidney (MDCK) cells
T1 sequence (P08183 whole entry, species assumed): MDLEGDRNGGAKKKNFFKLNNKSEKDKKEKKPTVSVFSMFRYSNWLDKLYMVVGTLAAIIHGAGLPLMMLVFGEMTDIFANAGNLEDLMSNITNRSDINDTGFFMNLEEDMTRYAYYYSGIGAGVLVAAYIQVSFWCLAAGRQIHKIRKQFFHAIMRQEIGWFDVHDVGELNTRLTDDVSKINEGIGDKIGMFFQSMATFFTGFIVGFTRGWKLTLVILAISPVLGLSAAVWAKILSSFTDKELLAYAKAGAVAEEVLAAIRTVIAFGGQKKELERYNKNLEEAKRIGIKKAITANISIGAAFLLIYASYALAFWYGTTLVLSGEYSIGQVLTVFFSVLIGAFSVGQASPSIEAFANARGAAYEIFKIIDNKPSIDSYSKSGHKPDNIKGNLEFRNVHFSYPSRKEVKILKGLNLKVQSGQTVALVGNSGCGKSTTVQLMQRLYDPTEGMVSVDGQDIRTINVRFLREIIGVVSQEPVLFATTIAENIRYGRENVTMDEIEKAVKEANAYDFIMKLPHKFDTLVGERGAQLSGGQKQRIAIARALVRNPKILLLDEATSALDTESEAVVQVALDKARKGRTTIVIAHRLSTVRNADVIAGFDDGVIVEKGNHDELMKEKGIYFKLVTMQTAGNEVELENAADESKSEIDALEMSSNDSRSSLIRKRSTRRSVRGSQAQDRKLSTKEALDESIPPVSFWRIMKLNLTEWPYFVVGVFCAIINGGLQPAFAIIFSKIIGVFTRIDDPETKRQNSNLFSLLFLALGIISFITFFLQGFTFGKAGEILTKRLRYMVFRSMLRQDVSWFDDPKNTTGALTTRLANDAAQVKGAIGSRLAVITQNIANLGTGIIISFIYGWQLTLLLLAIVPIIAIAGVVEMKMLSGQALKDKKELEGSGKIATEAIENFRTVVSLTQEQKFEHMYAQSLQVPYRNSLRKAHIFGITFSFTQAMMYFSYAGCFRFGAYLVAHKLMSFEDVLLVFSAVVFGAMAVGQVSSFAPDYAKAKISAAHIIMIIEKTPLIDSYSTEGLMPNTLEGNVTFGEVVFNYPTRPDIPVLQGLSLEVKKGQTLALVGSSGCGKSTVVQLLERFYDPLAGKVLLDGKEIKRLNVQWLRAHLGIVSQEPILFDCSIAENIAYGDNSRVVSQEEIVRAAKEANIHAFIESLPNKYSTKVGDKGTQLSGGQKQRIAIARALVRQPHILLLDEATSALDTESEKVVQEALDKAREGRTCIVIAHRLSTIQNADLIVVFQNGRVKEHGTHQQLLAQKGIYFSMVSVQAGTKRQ
Description: Madine-Darby Canine Kidney (MDCK) cells transfected with Multidrug resistance protein 1 (MDR1) are maintained in accordance with the provider's instructions in Dulbecco's Modified Eagle media (DMEM, Fisher Scientific Cat #10569044). DMEM is supplemented with 10% heat inactivated fetal bovine serum (Gibco Cat #16000-044), Penicillin-Streptomycin (100 units/mL) (Gibco Cat #15140122) and an inducer of P-gp, colchicine (200 nM) (Sigma Cat #C9754). The cells are seeded onto the apical side of HTS-Transwell-96 Plates (0.4 μm pore size, Corning Cat #3381) at a density of 6.25×10^3 cells per well with 75 μL and 250 μL of DMEM media in apical and basolateral wells, respectively, and are incubated at 37° C./5% CO2. Fresh DMEM media is exchanged in the apical and basolateral compartments after 72 hours and cells are allowed to grow into a monolayer for 144 hours before beginning the experimental incubation. Incubations are performed in Hanks' Balanced Salt Solution (HBSS, Fisher Scientific Cat #14025134) at pH 7.4 with 1% Bovine Serum Albumin (Sigma, Cat #A9418) and 10 mM HEPES (Fisher Scientific, Cat #15630080). DMEM media is removed and cells are rinsed with warm (37° C.) HBSS. HBSS with test compound at 1p M substrate concentration (0.1% v/v DMSO) is added to either the apical or basolateral compartment (75 μL or 250 μL, respectively) and blank HBSS buffer is added to the compartment which lacks test compound in singlicate. The cells are incubated for 60 minutes at 37° C./5% CO2. At the end of the incubation period, 50 μL of sample is removed from each receiver compartment and diluted into 150 μL of acetonitrile (Fisher Scientific, Cat #A996SK4)+0.1% formic acid (Sigma, Cat #F0507). The samples are centrifuged at 2000 rcf for 10 minutes at 4° C., after which 100 μL of supernatant is transferred to a new microplate and diluted with 100 μL of HPLC grade water (Fisher Scientific, Cat #W64). Samples are analyzed using a triple quadrupole mass spectrometer API-5500QTrap (ABSciex, Serial No. AU23291006) along with associated autosampler and high performance liquid chromatography pump instrumentation optimized for the detection of test articles through a Kinetix 2.1×50 mm C18 100 Å column (Phenomenex, Cat #00B-4605-AN).
Apparent permeability (Papp) values and efflux ratio are calculated using the following equations: […]

| Compound | IC50 [1] | IC50 [2] | efflux ratio at 60 min, 1 µM [3] | Papp A→B at 60 min, 1 µM [3] |
| --- | --- | --- | --- | --- |
| CN1C[C@H](F)C[C@@H](Nc2nnc(-c3ccc(Cl)cc3O)c3c2COCC3)C1 [Example 212, 5-chloro-2-(4-(((3R,5R)-5-fluoro-1-methylpiperidin-3-yl)amino)-7,8-dihydro-5H-pyrano[3,4-d]pyridazin-1-yl)phenol] | > 30 µM | 0.002 µM | 9 | 2.1 ×10⁻⁶ cm/s |
| CN1C[C@H](F)C[C@@H](Nc2nnc(-c3ccccc3O)c3c2COCC3)C1 [Example 213, 2-(4-(((3R,5R)-5-fluoro-1-methylpiperidin-3-yl)amino)-7,8-dihydro-5H-pyrano[3,4-d]pyridazin-1-yl)phenol] | > 30 µM | 0.028 µM | 14 | 3.1 ×10⁻⁶ cm/s |
| Cc1ccc(-c2nnc(N[C@@H]3CCCN(C)C3)c3c2CCOC3)c(O)c1 [Example 218, (R)-5-methyl-2-(4-((1-methylpiperidin-3-yl)amino)-7,8-dihydro-5H-pyrano[3,4-d]pyridazin-1-yl)phenol] | > 30 µM | 0.002 µM | 26 | 1.2 ×10⁻⁶ cm/s |
| CN1C[C@H](F)C[C@@H](Nc2nnc(-c3ccc(F)cc3O)c3c2COCC3)C1 [Example 219, 5-fluoro-2-(4-(((3R,5R)-5-fluoro-1-methylpiperidin-3-yl)amino)-7,8-dihydro-5H-pyrano[3,4-d]pyridazin-1-yl)phenol] | > 30 µM | 0.008 µM | 13 | 4.7 ×10⁻⁶ cm/s |
| CN1CCC[C@@H](Nc2nnc(-c3ccc(Cl)cc3O)c3c2COCC3)C1 [Example 225, (R)-5-chloro-2-(4-((1-methylpiperidin-3-yl)amino)-7,8-dihydro-5H-pyrano[3,4-d]pyridazin-1-yl)phenol] | > 30 µM | 0.002 µM | 22 | 1.5 ×10⁻⁶ cm/s |
| Cc1ccc(-c2nnc(N[C@@H]3CCCC[C@H]3O)c3c2CCOC3)c(O)c1 [Example 229, 2-(4-(((1R,2R)-2-hydroxycyclohexyl)amino)-7,8-dihydro-5H-pyrano[3,4-d]pyridazin-1-yl)-5-methylphenol] | > 10 µM | 0.036 µM | 6 | 1 ×10⁻⁶ cm/s |
| COc1ccc(-c2nnc(N[C@@H]3C[C@@H](F)CN(C)C3)c3c2CCOC3)c(O)c1 [Example 237, 2-(4-(((3R,5R)-5-fluoro-1-methylpiperidin-3-yl)amino)-7,8-dihydro-5H-pyrano[3,4-d]pyridazin-1-yl)-5-methoxyphenol] | > 30 µM | 0.011 µM | 10 | 1.6 ×10⁻⁶ cm/s |
| CN1C[C@H](F)C[C@@H](Nc2nnc(-c3ccc(C4CC4)cc3O)c3c2COCC3)C1 [Example 238, 5-cyclopropyl-2-(4-(((3R,5R)-5-fluoro-1-methylpiperidin-3-yl)amino)-7,8-dihydro-5H-pyrano[3,4-d]pyridazin-1-yl)phenol] | > 30 µM | 0.005 µM | 41 | 0.6 ×10⁻⁶ cm/s |

The next lines start with the values.

| IC50 [1] | IC50 [2] | efflux ratio at 60 min, 1 µM [3] | Papp A→B at 60 min, 1 µM [3] | Compound |
| --- | --- | --- | --- | --- |
| > 30 µM | 0.01 µM | 17 | 1.7 ×10⁻⁶ cm/s | Cc1ccc(-c2nnc(N[C@@H]3C[C@@H](F)CN(C)C3)c3c2COCC3)c(O)c1 [Example 201, 2-(1-(((3R,5R)-5-fluoro-1-methylpiperidin-3-yl)amino)-7,8-dihydro-5H-pyrano[3,4-d]pyridazin-4-yl)-5-methylphenol] |
| > 30 µM | 0.008 µM | 9 | 1.5 ×10⁻⁶ cm/s | Cc1ccc(-c2nnc(N[C@@H]3C[C@@H](F)CN(C)C3)c3c2CCOC3)c(O)c1 [Example 220, 2-(4-(((3R,5R)-5-fluoro-1-methylpiperidin-3-yl)amino)-7,8-dihydro-5H-pyrano[3,4-d]pyridazin-1-yl)-5-methylphenol] |
| > 30 µM | 0.003 µM | 30 | 1 ×10⁻⁶ cm/s | COc1ccc(-c2nnc(N[C@@H]3CCCN(C)C3)c3c2CCOC3)c(O)c1 [Example 221, (R)-5-methoxy-2-(4-((1-methylpiperidin-3-yl)amino)-7,8-dihydro-5H-pyrano[3,4-d]pyridazin-1-yl)phenol] |
| > 30 µM | 0.009 µM | 21 | 1.3 ×10⁻⁶ cm/s | CN1CCC[C@@H](Nc2nnc(-c3ccccc3O)c3c2COCC3)C1 [Example 226, (R)-2-(4-((1-methylpiperidin-3-yl)amino)-7,8-dihydro-5H-pyrano[3,4-d]pyridazin-1-yl)phenol] |
| > 10 µM | 0.121 µM | 7 | 1.3 ×10⁻⁶ cm/s | Cc1ccc(-c2nnc(N[C@@H]3CCCC[C@H]3O)c3c2COCC3)c(O)c1 [Example 230, 2-(1-(((1R,2R)-2-hydroxycyclohexyl)amino)-7,8-dihydro-5H-pyrano[3,4-d]pyridazin-4-yl)-5-methylphenol] |
| > 30 µM | 0.155 µM | 25 | 2 ×10⁻⁶ cm/s | COCCN1CCC[C@@H](Nc2nnc(-c3ccc(C)cc3O)c3c2COCC3)C1 [Example 233, (R)-2-(4-((1-(2-methoxyethyl)piperidin-3-yl)amino)-7,8-dihydro-5H-pyrano[3,4-d]pyridazin-1-yl)-5-methylphenol] |
| > 30 µM | 0.006 µM | 12 | 1.5 ×10⁻⁶ cm/s | CN1C[C@H](F)C[C@@H](Nc2nnc(-c3ccc(C(F)(F)F)cc3O)c3c2COCC3)C1 [Example 234, 2-(4-(((3R,5R)-5-fluoro-1-methylpiperidin-3-yl)amino)-7,8-dihydro-5H-pyrano[3,4-d]pyridazin-1-yl)-5-(trifluoromethyl)phenol] |
| > 30 µM | 0.007 µM | 10 | 2.2 ×10⁻⁶ cm/s | CN1C[C@H](F)C[C@@H](Nc2nnc(-c3ccc(OC(F)(F)F)cc3O)c3c2COCC3)C1 [Example 236, 2-(4-(((3R,5R)-5-fluoro-1-methylpiperidin-3-yl)amino)-7,8-dihydro-5H-pyrano[3,4-d]pyridazin-1-yl)-5-(trifluoromethoxy)phenol] |
| > 30 µM | 0.011 µM | 39 | 1.2 ×10⁻⁶ cm/s | CN1C[C@H](F)C[C@@H](Nc2nnc(-c3ccc(C(F)F)cc3O)c3c2COCC3)C1 [Example 239, 5-(difluoromethyl)-2-(4-(((3R,5R)-5-fluoro-1-methylpiperidin-3-yl)amino)-7,8-dihydro-5H-pyrano[3,4-d]pyridazin-1-yl)phenol] |

From patent US20250340563A1, “FUSED PYRIDAZINE DERIVATIVES AS NLRP3 INHIBITORS” (Takeda Pharmaceutical Company Limited, priority 2022, published 2025)
